From patent US12582641B2, “Sulfur-containing compound based on glutarimide skeleton and application thereof” (SHANGHAITECH UNIVERSITY, priority 2019, dated 2026)

Tested on: MM.1S cells
Assay: Proliferation inhibition (IC50) in MM.1S cells, cell viability assay
Settings: Homo sapiens, MM1.S, 72 h, read-out: IC50 (nM), proliferation inhibitory activity of MM.1S cells (half inhibitory concentration)
Protocol: MM.1S (B lymphoblast) was purchased from ATCC. Complete medium was RPMI1640 supplemented with 10% FBS and 1% Penicillin-Streptomycin. The cells used were identified as correct cells by STR cells, and were negative for mycoplasma through routine inspections.
IC50 values of the compounds of the present disclosure were measured using Cell Titer Blue, Cell Titer GLO, or WST reagent from Promega Company. Assay details are as follows: Cells were seeded in 100 μL RPMI1640 complete medium containing serum at a density of 15,000 cells/well. After 24 h, the inoculated cells were treated with diluted commercial inhibitor and the compounds of the present disclosure to be tested after serial dilution. After the cells were treated with the compounds of the present disclosure to be tested for 72 h, cell viability was determined after adding the cell viability detection kit listed above according to the reagent operating instructions. The negative control was DMSO, and the positive control was a commercial inhibitor, both of which were used to treat the cells through the same method as that of the compounds of the present disclosure. The growth inhibition of the compounds of the present disclosure on cells was plotted by Prism Graphpad software, and the IC50 values of the compounds of the present disclosure were calculated therefrom.
We tested the activities of the compounds of the present invention in MM.1S cell (which overexpressed IKZF1/3 and is highly sensitive to immunomodulatory drugs) through a dose-dependent manner. The cells were treated with the compounds of the present invention at 10 different successively decreasing concentrations (starting at the highest concentration of 10 μM; 5-fold serial dilutions) for 72 h, and then the cell viability determination was performed in accordance with CCK-8 reagent operating instructions. The experiment was repeated more than three times.

Compound	IC50
CSc1cccc2c1CN(C1CCC(=O)NC1=O)C2=O (stereo not drawn) [SIAIS1210071, 3-(4-(methylthio)-1-oxoisoindolin-2-yl)piperidine-2,6-dione]	3.37 ± 0.48 nM
CC(C)(C)NCc1ccc(CSc2cccc3c2CN(C2CCC(=O)NC2=O)C3=O)cc1 (stereo not drawn) [SIAIS1227107, 3-(4-((4-((tert-butylamino)methyl)benzyl)thio)-1-oxoisoindolin-2-yl)piperidine-2,6-dione]	0.27 ± 0.07 nM
O=C1CCC(N2Cc3c(SCc4ccc(CNC(C5CC5)C5CC5)o4)cccc3C2=O)C(=O)N1 (stereo not drawn) [SIAIS313150, 3-(4-(((5-(((dicyclopropylmethyl)amino)methyl)furan-2-yl)methyl)thio)-1-oxoisoindolin-2-yl)piperidine-2,6-dione]	0.7 ± 0.27 nM
O=C1CCC(N2Cc3c(SCc4ccc(CCCNC5CCCCC5)cc4)cccc3C2=O)C(=O)N1 (stereo not drawn) [SIAIS1227045, 3-(4-((4-(3-(cyclohexylamino)propyl)benzyl)thio)-1-oxoisoindolin-2-yl)piperidine-2,6-dione]	0.06 ± 0.01 nM
O=C1CCC(N2Cc3c(SCCc4ccc(CN5CCCCC5)cc4)cccc3C2=O)C(=O)N1 (stereo not drawn) [SIAIS1224161, 3-(1-oxo-4-((4-(piperidin-1-ylmethyl)phenethyl)thio)isoindolin-2-yl)piperidine-2,6-dione]	3.62 nM
O=C1CCC(N2Cc3c(SCc4nc(CN5CCOCC5)cs4)cccc3C2=O)C(=O)N1 (stereo not drawn) [SIAIS313169, 3-(4-(((4-(morpholinomethyl)thiazol-2-yl)methyl)thio)-1-oxoisoindolin-2-yl)piperidine-2,6-dione]	5.03 ± 2.13 nM
O=C1CCC(N2Cc3c(SCc4ccc(CCN5CCC(F)(F)CC5)cc4)cccc3C2=O)C(=O)N1 (stereo not drawn) [SIAIS1227161, 3-(4-((4-(2-(4,4-difluoropiperidin-1-yl)ethyl)benzyl)thio)-1-oxoisoindolin-2-yl)piperidine-2,6-dione]	0.025 nM
O=C1CCC(N2Cc3c(SCCCCCNC45CC6CC(CC(C6)C4)C5)cccc3C2=O)C(=O)N1 (stereo not drawn) [SIAIS1221117, 3-(4-((5-((adamantan-1-yl)amino)pentyl)thio)-1-oxoisoindolin-2-yl)piperidine-2,6-dione]	0.06 nM
O=C1CCC(N2Cc3c(SCCCCCCCCCSc4cccc5c4CN(C4CCC(=O)NC4=O)C5=O)cccc3C2=O)C(=O)N1 (stereo not drawn) [SIAIS1220059B, 3,3′-((nonane-1,9-diylbis(sulfanediyl))bis(1-oxoisoindoline-4,2-diyl))bis(piperidine-2,6-dione)]	1.7 nM

Continued by falling IC50, values first:

IC50	Compound
0.77 nM	CC1CN(CCCCCCCCSc2cccc3c2CN(C2CCC(=O)NC2=O)C3=O)CC(C)N1 (stereo not drawn) [SIAIS1220057, 3-(4-((8-(3,5-dimethylpiperazin-1-yl)octyl)thio)-1-oxoisoindolin-2-yl)piperidine-2,6-dione]
0.578 nM	CC12CC3CC(C)(C1)CC(NC(=O)CCCCCCSc1cccc4c1CN(C1CCC(=O)NC1=O)C4=O)(C3)C2 (stereo not drawn) [SIAIS1220197, N-(3,5-dimethyladamantan-1-yl)-7-((2-(2,6-dioxopiperidin-3-yl)-1-oxoisoindolin-4-yl)thio)heptanamide]
0.499 nM	O=C1CCC(N2Cc3c(SCCCc4ccc(CN5CCOCC5)cc4)cccc3C2=O)C(=O)N1 (stereo not drawn) [SIAIS1227075, 3-(4-((3-(4-(morpholinomethyl)phenyl)propyl)thio)-1-oxoisoindolin-2-yl)piperidine-2,6-dione]
0.46 ± 0.19 nM	O=C1CCC(N2Cc3c(SCCCCCCCCCCN4CCOCC4)cccc3C2=O)C(=O)N1 (stereo not drawn) [SIAIS1220023, 3-(4-((10-morpholinodecyl)thio)-1-oxoisoindolin-2-yl)piperidine-2,6-dione]
0.21 nM	CN(CCCCCCCSc1cccc2c1C(=O)N(C1CCC(=O)NC1=O)C2=O)C12CC3CC(CC(C3)C1)C2 (stereo not drawn) [SIAIS1222029, 4-((7-((adamantan-1-yl)(methyl)amino)heptyl)thio)-2-(2,6-dioxopiperidin-3-yl)isoindoline-1,3-dione]
0.181 nM	O=C1CCC(N2Cc3c(SCCCCCCCNC4CC4)cccc3C2=O)C(=O)N1 (stereo not drawn) [SIAIS1222105, 3-(4-((7-(cyclopropylamino)heptyl)thio)-1-oxoisoindolin-2-yl)piperidine-2,6-dione]
